Bridges are numbered along the chain shown (N, C = ends). Where no end group is shown, it is not given here.
Key:
[1] = test system: primary human synovial cells (SC); assay: In vitro synovial cell invasion assay (GFR-Matrigel); format: cell-based; conditions: rheumatoid arthritis synovial cells, peptide 1 h, 100 ng/ml PDGF-BB 22 h; n = 3
Procedure: Synovial cell invasion was determined using a GFR-Matrigel™ invasion assay kit (BD Biosciences, USA). Serum-starved SC were treated with peptide for 1 h, followed by stimulation with 100 ng/ml PDGF-BB at 37 °C for 22 h. After incubation, non-invading cells on the upper side of the chamber were removed and the invaded cells on the lower side of the membrane were fixed with methanol and stained with Hema Gurr® rapid staining solution (Merck Chemicals, Ltd.). Cells were counted using a light microscope at 160× magnification in 3 random fields per well of 3 separate wells.

[2] = test system: recombinant human VEGFR-2; assay: Solid phase binding assay: competition with biotinylated-VEGF165; conditions: plate-coated rhVEGFR-2-Fc; biotinylated-VEGF165 2.4 nM, 1 h room temperature; Fig. 1
Procedure: Ninety six-well plates were coated with the extracellular domain of recombinant human VEGFR-2 fused to the Fc domain of human IgG1 (rhVEGFR-2, R&D Systems, UK) by overnight incubation followed by blocking in 5 % bovine serum albumin/PBS. […] After washing, the biotinylated-VEGF165 was detected with avidin-horse-radish peroxidase and OPD substrate (Sigma-Aldrich, UK) followed by spectrophotometry.

[3] = test system: VEGFR-2; assay: Immunoblotting of VEGF165-induced VEGFR-2 phosphorylation; format: cell-based, human; conditions: 1 μM, HuDMEC, western blot; n = 3
Procedure: (§1) Transfected HUVEC or HuDMEC pre-treated with 1 μM test peptides for 1 h, were stimulated with 0.5 nM of VEGF165 for 2, 5 or 10 min. Cells were lysed and phosphorylated proteins detected by western blotting using phospho-specific antibodies to either VEGFR-2, Erk1/2 or PI3K (New England BioLabs, UK). Band intensities were quantified using Bio-Rad Quantity One Analysis software and normalized using U, un-stimulated control, as 0 %; and VEGF165, positive control, as 100 % of protein phosphorylation.

[4] = test system: EGFR; assay: Phospho-receptor tyrosine kinase array; format: cell-based, human; conditions: HuDMEC, 100 ng/ml EGF 5 min, phospho-RTK array, preliminary screen, data not shown
Procedure: Serum-deprived HuDMEC were pre-treated with test peptides for 1 h and then stimulated with growth factors (0.5 nM VEGF165, 1.6 nM bFGF, 1 nM PDGF-BB, 1.6 nM hepatocyte growth factor, 100 ng/ml EGF or 100 ng/ml insulin-like growth factor I) for 5 min. Cells were then lysed and phosphorylated proteins detected using (a) a receptor tyrosine kinase array (Human Phospho-Receptor Tyrosine Kinase Array Kit, R&D Systems Ltd.) or (b) sandwich ELISA (Duo-sets, R&D Systems Ltd.) according to the manufacturer’s instructions.

[5] = test system: PI3K; assay: Immunoblotting of VEGF165-induced PI3K phosphorylation; format: cell-based, human; conditions: 1 μM, HuDMEC, western blot; n = 3
Procedure: as §1

## KIKSCYYLPCFVTSKN (disulfide 5-10 (inferred)) [p700]
[1]
  inhibition of PDGF-BB induced synovial cell invasion: approximately 40%
[2]
  ability to inhibit the binding of VEGF165 to rhVEGFR-2: able to inhibit
[3]
  inhibition of VEGF165-induced VEGFR-2 phosphorylation: approximately 50%
[4]
  inhibition of EGFR: not inhibited
[5]
  inhibition of VEGF165-induced phosphorylation of PI3K: approximately 50%
